Test systems include BT-549; SNB-78; DMS-114; DMS-273; DLD-1; LXFL 529; HOP-18; XF498; RXF 631.
Assay in all cases: growth of human tumour cells (NCI), 48 h

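Test compounds were applied to cells in 96-well plates for 48 hours at 5 doses. The concentration for 50% growth inhibition is given as GI50.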 Activity calls are given as the source filed them. No stated cut-off is given here; in the data, active = GI50 up to about 1.1 µM and inactive = higher. Starred links: 1 amine or outer side, 2 acyl side, 3 side chain; linkers in the order of their positions; H or OH if unused. Non-standard residues stand in square brackets, D forms with d. Residues, ends and D or L forms follow the SMILES beside them. X41 = CSCCCC(N[*:1])C(=O)[*:2]

As for `CC(=O)CCNc1ccc(-c2cc(-c3ccc(N(C)C)cc3)nc3ccc4ccccc4c23)cc1`, in the assay with BT-549, the GI50 is 35.9 µM (inactive).

On to `CCC(=O)OCc1ccc2oc(=O)c(C(=O)Oc3cncc(Cl)c3)cc2c1`, for which the GI50 in the assay on BT-549 was > 100 µM (inactive).

For `O=C(OCCC12CC3CC(CC(C3)C1)C2)c1ccc(NCc2cc(O)ccc2O)cc1`, the GI50 with BT-549 is 0.241 µM (active).

For `NNC(=O)CS(=O)(=O)Nc1ncccn1`, the GI50 in the assay with BT-549 was > 100 µM (inactive).

As for `S=C(NCc1ccccc1)N/N=C/c1ccccn1`, the GI50 in the assay with BT-549 is 8.02 µM (inactive).

For the compound `CN(C)CCc1c2c(nc3ccccc13)C(=O)c1cccnc1C2=O`, in the assay on BT-549, the GI50 is 0.268 µM (active).

`Cc1sc2nc(-c3ccc(Cl)c([N+](=O)[O-])c3)c(/C=N/NC(=N)N)n2c1C`: the GI50 in the assay with BT-549 was 1.7 µM (inactive).

For `COC1=CC(=O)OC(/C=C(C)/C=C/C2=C(C)CCCC2(C)C)C1` (configuration not stated), the GI50 in the assay on SNB-78, in the assay with DMS-114, in the assay with DMS-273, in the assay on DLD-1 and with LXFL 529 was > 100 µM (inactive) throughout.

Regarding `O=C(c1ccco1)N(C(=S)N1CCN(c2ccccn2)CC1)C1CCCCC1`, the GI50 in the assay on SNB-78 was > 100 µM (inactive); in the assay with HOP-18 it was > 100 µM (inactive); with DMS-114 it was 77.3 µM (inactive); with DMS-273 it was > 100 µM (inactive); in the assay with DLD-1, > 100 µM (inactive); with LXFL 529, > 100 µM (inactive).

As to `Cc1cc(NS(=O)(=O)c2ccc(Nc3c4ccccc4nc4c(C(=O)NCCN(C)C)ccc(Cl)c34)cc2)no1`, the GI50 was 10.7 µM (inactive) in the assay with SNB-78; 13.8 µM (inactive) in the assay with XF498; 0.867 µM (active) in the assay on DMS-114; 3.94 µM (inactive) in the assay on DLD-1; 4.67 µM (inactive) with LXFL 529; 0.851 µM (active) with RXF 631.

As for `COc1ccc(/N=C2\C(=N/c3ccc(OC)cc3)N(S(=O)(=O)c3ccccc3)C(=S)N2c2ccc(OC)cc2)cc1`, the GI50 with BT-549 was > 100 µM (inactive).

For the compound `C=C(C)[C@H]1C2=CC(C(=O)OC)=C(C[C@H](C(=C)C)[C@@H](O)[C@@H](O)C3=C[C@H]1OC3=O)O2`, the GI50 in the assay on BT-549 is > 100 µM (inactive).

As to `CCCCCC(C)C[C@H]1CO[C@H](c2ccc[nH]2)N[C@H]1C(=O)OC` (some centres not stated), the GI50 with BT-549 is > 100 µM (inactive).

Regarding `COc1cc(/C=C/C=C2\CCC/C(=C\C=C\c3ccc(O)c(OC)c3)C2=O)ccc1O`, the GI50 in the assay with BT-549 was 17.2 µM (inactive).

Consider `COC(=O)/C=C1/N=C(N(C)/N=C/c2ccccc2)NC1=O`, for which the GI50 in the assay on BT-549 was > 100 µM (inactive).

Regarding `Nc1nc(NC2C=C(CO)C(O)C2O)c([N+](=O)[O-])c(=O)[nH]1` (configuration not stated), the GI50 in the assay with SNB-78, with XF498, with HOP-18, in the assay on DMS-114, in the assay on DMS-273 and with DLD-1 was > 100 µM (inactive) each time. For the same compound, in the assay with LXFL 529, the GI50 is > 100 µM (inactive).

With `COC(=O)/C=C1\C(=O)Nc2ccc(Br)cc21`, the GI50 in the assay on BT-549 was 1.69 µM (inactive).

For `O=C(O[C@H]1[C@@H]2C=CO[C@@H](OC3OC(CO)C(O)C(O)C3O)[C@@H]2[C@@]2(CO)O[C@@H]12)c1ccc(O)c(O)c1` (some centres not stated), the GI50 is > 100 µM (inactive) in the assay on SNB-78; 41.5 µM (inactive) with XF498; > 100 µM (inactive) with DMS-273; > 100 µM (inactive) with DLD-1; > 100 µM (inactive) with LXFL 529.

`CN1CCN(Cc2ccccc2)CC1CC#N` (configuration not stated): in the assay on BT-549, the GI50 is > 100 µM (inactive).

`CN(C)c1ccc(/C=N/NC2=N/C(=C\c3ccco3)C(=O)N2)cc1`: the GI50 with BT-549 was > 100 µM (inactive).

As to `CC1(C)CC(C2CC(C)(C)CC(C)(C)[C@H]2O)[C@@H](O)C(C)(C)C1` (some centres not stated), the GI50 in the assay on XF498, in the assay with DMS-114, in the assay with DMS-273 and in the assay with LXFL 529 was > 100 µM (inactive) in each case.

Take `COc1ccc(C(=O)C(CC2C(=O)CC(C)(C)C(C(=O)C(=O)Nc3c(C)cccc3C)C2=O)c2ccc(OC)cc2)cc1` (configuration not stated): the GI50 in the assay with BT-549 was > 100 µM (inactive).

For `COC12CCCN1c1ccn(Cc3ccccc3)c(=O)c1C2=O` (configuration not stated), the GI50 in the assay on BT-549 is > 100 µM (inactive).

Regarding `COC1C(=O)N(SC)C1c1ccccc1Cl` (configuration not stated), in the assay with BT-549, the GI50 was 23.4 µM (inactive).

As to `CC(C)=CCC[C@@H](C)C1=C(O)C(=O)C(C)=C(Nc2ccccc2I)C1=O`, the GI50 with BT-549 is 23.6 µM (inactive).

With `Clc1ccc(/C=C/c2nc(-c3ccccc3)cn3c2nc2ccccc23)cc1Cl`, the GI50 in the assay on BT-549 was 61.7 µM (inactive).

As for `O=C(Cc1cc(=O)oc2cc(O)ccc12)N/N=C/c1ccc(N(CCCl)CCCl)cc1`, the GI50 in the assay on BT-549 was 16.4 µM (inactive).

Regarding `COC(=O)[C@H](C)N1C(=O)N[C@@H](C(C)C)C1=O`, the GI50 with BT-549 was > 100 µM (inactive).

`COc1cc(Nc2ccc3c(c2)CCC3)nc(OC)n1`: the GI50 in the assay on BT-549 was 33.3 µM (inactive).

`CC1CCN(C(C)C)P(=S)(Cc2ccccc2)O1` (configuration not stated): the GI50 in the assay on BT-549 is 28.1 µM (inactive).

Take `Cc1ccc2[nH]c(=O)c(-c3cnc(O)nn3)c(O)c2c1`: the GI50 in the assay with BT-549 was 80.2 µM (inactive).

For the compound `CC1=C(/C(C)=N/NC(=O)c2ccccc2O)C(C)C(/C(C)=N/NC(=O)c2ccccc2O)=C(C)N1`, the GI50 was 40.6 µM (inactive) with SNB-78; 15.1 µM (inactive) in the assay on XF498; 16.2 µM (inactive) with DMS-114; 27.9 µM (inactive) with DLD-1; 23.3 µM (inactive) in the assay with LXFL 529; 37.1 µM (inactive) with RXF 631.

Consider `O=C1c2cn[nH]c2N=C(Nc2ccccc2)C1/N=C/c1ccc([N+](=O)[O-])cc1` (configuration not stated), for which the GI50 with BT-549 is > 10 µM (inactive).

Take `CC1C(c2ccccc2O)c2cc3c(cc2OC1N1CCOCC1)OCO3` (configuration not stated): the GI50 with BT-549 is 27.4 µM (inactive).

`Cc1ccc2c(c1)C(=O)C(Cc1ccccc1C(=O)O)C2` (configuration not stated): the GI50 in the assay with BT-549 was > 100 µM (inactive).

On to `C=CCC(CNC(=O)OCc1ccccc1)OC(=O)OCc1ccccc1` (configuration not stated), for which the GI50 in the assay on BT-549 is > 100 µM (inactive).

As for `O=c1c2ccccc2nc(-c2cccc([N+](=O)[O-])c2)n1O`, in the assay with BT-549, the GI50 was 12 µM (inactive).

With `C[C@]12CC[C@H]3[C@@H](CC=C4C[C@@H](N5CCCC5)CC[C@@]43C)[C@@H]1C/C(=C\c1ccc([N+](=O)[O-])cc1)[C@@H]2O`, the GI50 in the assay on BT-549 was 13.5 µM (inactive).

With `Cc1nnc(-n2c(O)cc(=O)n(-c3ccccc3)c2=S)nc1/C=C/c1ccc(N(C)C)cc1`, the GI50 in the assay with BT-549 is 20.9 µM (inactive).

As to `COc1cc(C=O)c(-c2cc(OC)c(OC)cc2C=O)cc1OC`, the GI50 is > 100 µM (inactive) in the assay on SNB-78; > 100 µM (inactive) in the assay with HOP-18; 24.3 µM (inactive) in the assay with DMS-114; > 100 µM (inactive) in the assay with DMS-273; 65 µM (inactive) in the assay on DLD-1; > 100 µM (inactive) in the assay on LXFL 529.

In the case of `CN1C[C@@H]2CCCN2P1Oc1cccc2cccnc12` (some centres not stated), the GI50 in the assay with BT-549 was > 100 µM (inactive).

As for `NC(Cc1ccccc1)C(=O)OCN1C(=O)C2C3C=CC(C2C1=O)C1C2C(=O)N(COC(=O)C(N)Cc4ccccc4)C(=O)C2C31` (configuration not stated), the GI50 is 30.8 µM (inactive) in the assay with XF498, 20.9 µM (inactive) with DMS-114, 23 µM (inactive) with DLD-1 and 19.4 µM (inactive) with LXFL 529.

As to `Cc1ccc(C(=O)/C=C/c2ccccc2Cl)cc1`, the GI50 is 21.7 µM (inactive) in the assay on SNB-78; 26.8 µM (inactive) with HOP-18; 18.3 µM (inactive) in the assay with DMS-114; 15.2 µM (inactive) in the assay on DMS-273; 19.8 µM (inactive) in the assay with DLD-1; 15.3 µM (inactive) in the assay on LXFL 529.

With `NC1=NC(c2ccc(Cl)cc2)N(c2ccc(S(=O)(=O)Nc3ncccn3)cc2)C(N)=N1` (configuration not stated), the GI50 in the assay with BT-549 is > 100 µM (inactive).

On to `CC(=O)OCC1OC(n2c(=O)n(-c3ccccc3)c(=O)c3ccccc32)C(OC(C)=O)C(OC(C)=O)C1OC(C)=O` (configuration not stated), for which the GI50 in the assay on SNB-78, with HOP-18, in the assay with DMS-114, with DMS-273, with DLD-1 and with LXFL 529 was > 100 µM (inactive) throughout. Besides, the GI50 in the assay with RXF 631 is > 100 µM (inactive).

For `O=C1NC(N2CCOCC2)=N/C1=C\c1ccc(Cl)cc1`, the GI50 with BT-549 is > 100 µM (inactive).

In the case of `CC1Cn2c(nc3ccccc32)NC1=O` (configuration not stated), the GI50 in the assay with BT-549 is > 100 µM (inactive).

`Nc1ccc2nc(-c3ccccn3)c(-c3ccccn3)nc2c1`: the GI50 in the assay with BT-549 was > 100 µM (inactive).

On to `CC(=O)OC1C=CC2CCN3C(=O)c4cc5c(cc4[C@H]1C23)OCO5` (some centres not stated), for which the GI50 with SNB-78, with DMS-114, in the assay on DMS-273, in the assay on DLD-1 and in the assay on LXFL 529 was > 100 µM (inactive) each time.

Regarding `C[N+](C)(C)CC1CCC(C[N+](C)(C)C)C1=NO` (configuration not stated), the GI50 in the assay with SNB-78, with XF498, with HOP-18, in the assay on DLD-1 and with LXFL 529 was > 100 µM (inactive) in each case.

As for `O=C(O)c1cc(-c2ccncc2)nc2ccccc12`, the GI50 with BT-549 was > 100 µM (inactive).

With `CCCC(=O)N[C@H]1CCc2cc(OC)c(OC)c(OC)c2-c2ccc(SC)c(=O)cc21`, the GI50 is < 0.01 µM (active) in the assay on SNB-78; > 35.8 µM (inactive) in the assay on HOP-18; < 0.01 µM (active) with BT-549; < 0.01 µM (active) with DMS-114; < 0.01 µM (active) with DMS-273; < 0.01 µM (active) in the assay on DLD-1. Besides, the GI50 in the assay on LXFL 529 and in the assay with RXF 631 was < 0.01 µM (active) each time.

Regarding `O=C(/C=C/c1ccccc1)Oc1ccc(C(=O)/C=C/c2ccccc2)cc1`, the GI50 in the assay with BT-549 was 6.49 µM (inactive).

`CSCCCC(NC(=O)CNC(=O)C1CCCN1C(=O)C(Cc1ccc(O)cc1)NC(=O)C(Cc1ccccc1)NC(=O)C(CCCNC(=N)N)NC(=O)C(CC(=O)O)NC(=O)C1CCCN1C(=O)C(CC(=O)O)NC(=O)C1CCCN1C(=O)C1CCCN1C(=O)CN)C(N)=O` (configuration not stated) (H-GPPDPDRFYPG[X41]-NH2; configuration not given here): the GI50 in the assay on BT-549 is > 50 µM (inactive).

Take `O=c1oc2c(O)c(O)c(O)c3c(=O)oc4c(O)c(O)cc1c4c23` [FLAVELLAGIC ACID]: the GI50 is > 100 µM (inactive) with SNB-78; > 100 µM (inactive) with HOP-18; 29.7 µM (inactive) with DMS-114; 85.1 µM (inactive) in the assay on DMS-273; > 100 µM (inactive) with DLD-1; 73.1 µM (inactive) with LXFL 529.

As for `NS(=O)(=O)c1ccc(/N=N/c2ccc(O)c(C(=O)O)c2)cc1` [SALAZOSULFAMIDE], the GI50 in the assay on BT-549 was > 100 µM (inactive).

For the origin of these results see ChEMBL document CHEMBL1201862, “PubChem BioAssay data set” (2004).
